Reference: patent publication US20030207933A1, “Compositions and methods for increasing the sensitivity of apoptosis-resistant tumor cells to inducers of apoptosis” (priority 2002, published 2003)

Columns and labels:
[1] = tested on: normal rat intestinal epithelial cells; assay: Toxic effects of etoposide on normal intestinal epithelial cells; assay type: cell-based
Excerpt: (§1) LY-ar was highly resistant to apoptosis induced by y-radiation. […] The apparent selective effects of W-188 may be due to the preferential intracellular accumulation of porphyrin compounds in transformed cells as opposed to normal cells reported previously (Bugelski, P. J., et al., Cancer Res., 1981, 41:4606).

[2] = tested on: Wehi-Hsp70 fibrosarcoma cells; assay: 20 h DNA fragmentation assay in Wehi cells overexpressing Hsp70; assay type: cell-based, murine; conditions: etoposide + 20 μM W-188, FIG. 8
Description: This finding was confirmed using the Wehi murine fibrosarcoma cell line that is transfected with and overexpresses Hsp70, as described previously (Jaattela, M., et al., EMBO J. 1998, 17:6124). Wehi transfected with Hsp70 or vector control were cultured with etoposide ±20 μM W-188 in a 20 h DNA fragmentation assay.

Bcl-2 = assay: Expression of Bcl-2 protein in HL-60-Bcl-2 cells; assay type: cell-based, human; conditions: W-188 + etoposide / chemotherapeutic drugs, in vitro
HL-60-Bcl-2 cells = assay: 10 day colony formation assay, HL-60-Bcl-2; assay type: cell-based, human; conditions: not shown
Excerpt: as §1

GSH = assay: Intracellular GSH levels; assay type: cell-based
Excerpt: (§2) However, more recent findings indicate that W-188 may also downregulate expression of endogenous Bcl-2 in cells that naturally have high levels of this protein.

LY-ar cells [3] = assay: Radiation-induced DNA fragmentation in LY-ar cells; assay type: cell-based, murine; conditions: γ-radiation in the presence of W-188; FIG. 10
Description: Additional studies were performed to determine if W-188 could also sensitize cells that naturally express high levels of Bcl-2. Clones were isolated from the murine B cell lymphoma, LY, that naturally express low levels of Bcl-2 (LY-as) or high levels (LY-ar), as described previously (Mirkovic, N., et al., Oncogene, 1997, 15:1461).
as §1

[4] = tested on: Nuclei from HL-60 Bcl-2 cells; assay: AP24-induced DNA fragmentation in nuclei isolated from pretreated cells; assay type: cell-based, human; conditions: for % DNA Fragmentation: cells incubated with W-188 5 μg/ml 4 hr, 20 hr assay
Excerpt: Nuclei isolated from HL-60-Bcl-2 cells were resistant to AP24-induced DNA fragmentation, as expected (Wright, S. C., et al., Cancer Res., 1998, 58:5570).

[5] = Body weight of RIF-1 tumor bearing mice
Description: Groups of five mice each were inoculated s.c. with RIF-1 cells. The tumors were allowed to grow for 12 days to a size of 0.5 cm diameter, which was designated day 0. […] The mice were weighed and the tumor size measured every day.

Ramos B lymphoma cells = assay: Dox cytotoxicity by trypan blue exclusion in Ramos cells; assay type: cell-based; conditions: 24 hr
Description: In the present study, the sensitizing activity of W-188 and W-143 was tested in the Raji and Ramos cell lines. Since these two human B lymphoma lines naturally express high levels of anti-apoptotic Bcl-2 proteins, they may be more clinically relevant than the transfected HL-60-Bcl-2 line.
The sensitizing effects of W-143 and W-188 were first tested on these lines in vitro. […] Ramos cells were cultured with different concentrations of Dox with and without W-143 or W-188 at 20 μg/ml for 24 hr, and then viability assessed microscopically by counting at least 100 cells.

caspase 3 = assay: Caspase 3 activity (DEVDase); assay type: cell-based
Excerpt: as §2

[6] = Cytotoxicity to normal venous endothelial cells (MTT dye reduction assay); assay type: cell-based, human; conditions: human, normal venous endothelial cells, 6 h
[7] = tested on: Normal human venous endothelial cells; assay: as above; assay type: cell-based
overexpression of Bcl-2 = assay: Comparison with compounds reported to counteract Bcl-2; assay type: cell-based; conditions: at 2.5 [M; data not shown
Excerpt: W-188 was then compared to other compounds previously reported to counteract Bcl-2 (Marchetti, P., et al., J. Immunol., 1996, 157:4830; Hirsch, T., et al., Exp. Cell Res., 1998, 241:426).

P3X63Ag8.653 (P3X) cells = assay: Drug-induced DNA fragmentation in Bcl-XL-overexpressing myeloma cells; assay type: cell-based, murine; conditions: W-188 0.1 μg/mL; etoposide, chlorambucil, YW-200; 24 h; FIG. 5
Description: It has been reported that the murine myeloma, SP2/0, is highly sensitive to cycloheximide-induced apoptosis, whereas the related murine myeloma, P3X63Ag8.653 (P3X), was resistant (Gauthier, E. R., et al., Cancer Res., 1996, 56:1451). This resistance was attributed to natural high levels of expression of Bcl-XL in the absence of any detectable Bcl-2. In contrast, SP2 expressed neither Bcl-2 or Bcl-XL. Thus, normal (SP2) or Bcl-XL-overexpressing cells (P3X) were treated with chemotherapeutic drugs ±0.1 μg/ml W-188. After 24 h, % DNA fragmentation was measured by release of ^3H-labeled DNA fragments.
P3X was relatively resistant to DNA fragmentation induced by three chemotherapeutic drugs, etoposide, chlorambucil, and YW-200, relative to SP2 (FIG. 5). YW-200 is an experimental DNA-binding chemotherapeutic drug related to CC-1065 (Wang, Y., et al., U.S. Pat. No. 5,843,937, 1998).

mice = assay: Histopathological analysis of internal organs after xenograft treatment; assay type: in vivo, nude mice; conditions: radiation + W-188 200 mg/kg; thirty days after treatment
Description: Thirty days after treatment, three mice that were given radiation+W-188 200 mg/kg (the optimal treatment in this experiment) were sacrificed and internal organs removed and processed for histopathological analysis by a board-certified pathologist at a commercial lab.

HL-60 Bcl-2 cells = assay: DNA fragmentation (release of 3H-labeled DNA fragments) in Bcl-2-transfected HL-60 cells; assay type: cell-based, human
LY-ar cells [8] = assay: 10 day colony formation assay, LY-ar; assay type: cell-based, murine; conditions: not shown
Excerpt: as §1

[9] = W-188 + etoposide, HL-60-Bcl-2 and LY-ar cells

With `CCC1=C(C)C(/C=C2\NC(=O)C(C)=C2CC)=NC/1=C\c1[nH]c(/C=C2\NC(=O)C(C)=C2CC)c(C)c1CC` [W-188, etiobiliverdin-IV] the “Effect on toxic effects of etoposide on normal cells” value [1] was “did not increase the toxic effects of etoposide”, the “Etoposide-induced DNA fragmentation” value [2] was “underwent DNA fragmentation at levels comparable to that observed with the Wehi-vector control” and the “Expression of Bcl-2 protein” value (Bcl-2) was “did not downregulate the expression of Bcl-2 protein”. The “Sensitization to cell death mediated by etoposide and chlorambucil” value (HL-60-Bcl-2 cells) was “sensitized HL-60-Bcl-2 and LY-ar cells to cell death mediated by etoposide and chlorambucil”, the “Intracellular levels of GSH” value (GSH; [9]) was “caused depletion of GSH” and the “Intracellular levels of GSH” value (GSH; W-188 alone) was “did not affect intracellular levels of GSH or caspase 3 activity”. The “Radiation-induced DNA fragmentation” value (LY-ar cells [3]) was “underwent DNA fragmentation at levels equal to or exceeding that of LY-as treated with radiation”, the “% DNA Fragmentation” value ([4]; AP24 dilution 1:10) was 44 ± 4.8% and the “% DNA Fragmentation” value ([4]; AP24 dilution 1:20) was 19 ± 1.0%. For the same compound, the “Sensitivity of isolated nuclei to AP24-induced DNA fragmentation (in words)” value ([4]; pretreatment of HL-60-Bcl-2 cells) was “restored the sensitivity of the isolated nuclei to AP24-induced DNA fragmentation”, the Body weight ([5]; W-188 + Dox 5 mg/kg, FIG. 12) was “did lose weight, but not much more than those mice treated with Dox 5 mg/kg alone” and the Body weight ([5]; W-188 alone, data not shown) was “did not show any decrease in weight”. The “Toxicity of compound alone” value (Ramos B lymphoma cells; 20 μg/ml, no Dox) was “completely nontoxic”, the “Increase of cytotoxicity mediated by Dox” value (Ramos B lymphoma cells; compound 20 μg/ml + Dox, FIG. 6) was “over two fold” and the “Caspase 3 activity (DEVDase)” value (caspase 3; [9]) was “activation of caspase 3”. For the same compound, the “Caspase 3 activity (DEVDase)” value (caspase 3; W-188 alone) was “did not affect intracellular levels of GSH or caspase 3 activity”, the cytotoxicity at 6 h, 25 μg/mL ([6]; W-188 25 μg/mL, etoposide 0 μM) was 7 ± 1.5% and the cytotoxicity at 6 h, 50 μg/mL ([6]; W-188 50 μg/mL, etoposide 0 μM) was 22 ± 2%. The cytotoxicity at 6 h, 25 μg/mL ([6]; YW-200 0.01 μM + W-188 25 μg/mL) was 38 ± 4.9%, the cytotoxicity at 6 h, 50 μg/mL ([6]; YW-200 0.01 μM + W-188 50 μg/mL) was 59 ± 2.2% and the cytotoxicity at 6 h, 25 μg/mL ([6]; etoposide 100 μM + W-188 25 μg/mL) was 11 ± 1.5%. For the same compound, the cytotoxicity at 6 h, 50 μg/mL ([6]; etoposide 100 μM + W-188 50 μg/mL) was 21 ± 1.6%, the “Effect on toxic effects of etoposide on normal cells” value [7] was “did not increase the toxic effects of etoposide” and the “Augmentation of killing of endothelial cells by etoposide or YW-200” value ([7]; W-188 at concentrations as high as 50 μg/mL) was “did not augment the killing of endothelial cells by etoposide or YW-200”. For the same compound, the “Reversal of the effect of overexpression of Bcl-2” value (overexpression of Bcl-2) was “completely reversed the effect of overexpression of Bcl-2”, the “Sensitization to drug-induced DNA fragmentation” value (P3X63Ag8.653 (P3X) cells) was “sensitized P3X to undergo drug-induced DNA fragmentation at levels close to or equal to those of SP2” and the “Histopathology of heart, lung, liver, spleen, kidney, stomach, intestine” value (mice) was “All tissues examined were found to be normal”. The “% DNA Fragmentation” value (HL-60 Bcl-2 cells; Exp 1, etoposide 5 μM + compound 5 μM) was 40%, the “% DNA Fragmentation” value (HL-60 Bcl-2 cells; Exp 1, etoposide 5 μM + compound 10 μM) was 76% and the “% DNA Fragmentation” value (HL-60 Bcl-2 cells; Exp 2, etoposide 10 μM + compound 10 μM) was 62%. The “% DNA Fragmentation” value (HL-60 Bcl-2 cells; Exp 3, etoposide 5 μM + compound 10 μM) was 92%, the “% DNA Fragmentation” value (HL-60 Bcl-2 cells; Exp 4, etoposide 5 μM + compound 10 μM) was 59% and the “% DNA Fragmentation” value (HL-60 Bcl-2 cells; Exp 5, etoposide 10 μM + compound 10 μM) was 55%. The “Sensitization to DNA fragmentation induced by TNF, etoposide and UV light” value (HL-60 Bcl-2 cells; TNF 5 ng/ml, etoposide 20 μM, UV 0.08 J/cm^2, 5 h, FIG. 4A) was “dose-dependently sensitized HL-60 Bcl-2 cells to DNA fragmentation induced by all three agents”, the “Optimal doses giving DNA fragmentation comparable with HL-60 neo cells” value (HL-60 Bcl-2 cells; TNF, etoposide or UV, 5 h) was 25 to 50 µg/mL and the “Toxicity of compound alone” value (HL-60 Bcl-2 cells; W-188 alone, no apoptosis inducer) was “nontoxic”. The “Bcl-2-sensitizing activity (in words)” value (HL-60 Bcl-2 cells; tumor cells overexpressing Bcl-2, Table 4) was “most potent” and the “Sensitization to cell death mediated by etoposide and chlorambucil” value (LY-ar cells [8]) was “sensitized HL-60-Bcl-2 and LY-ar cells to cell death mediated by etoposide and chlorambucil”.
